{"source": "ChEMBL document CHEMBL5357083", "about": "(ACS Med Chem Lett, 2024)", "key": {"[1]": {"test": "in vitro", "conditions": "dog, MDCK-MDR1"}, "[2]": {"test": "in vitro", "conditions": "mouse, liver microsomes"}}}
{"molecule": "Brc1ccc2[nH]nc(C3=CCCNC3)c2c1", "values": [{"measurement": "Papp A→B at 5 µM", "setting": "[1]", "value": 7.9, "unit": "×10⁻⁶ cm/s"}, {"measurement": "CLhep predicted at […], 1 µM", "setting": "[2]", "value": 57, "unit": "mL/min/kg"}]}
